Conditions: Liquid, Vibrating tube method

CCCCn1cc[n+](C)c1.N#C[S-] [1-butyl-3-methylimidazolium thiocyanate]
mass density [kg/m3]
Conditions | 298.15 K | 308.15 K | 318.15 K | 328.15 K | 338.15 K
100 kPa | 1070.18 | 1063.9 | 1058.33 | 1052.54 | 1046.94
200 kPa | 1070.23 | 1063.94 | 1058.37 | 1052.59 | 1047.03
300 kPa | 1070.25 | 1064.03 | 1058.41 | 1052.62 | 1047.05
400 kPa | 1070.29 | 1064.09 | 1058.45 | 1052.69 | 1047.1
500 kPa | 1070.32 | 1064.13 | 1058.5 | 1052.69 | 1047.14
600 kPa | 1070.36 | 1064.18 | 1058.54 | 1052.75 | 1047.17
800 kPa | 1070.43 | 1064.29 | 1058.61 | 1052.82 | 1047.27
1000 kPa | 1070.5 | 1064.35 | 1058.68 | 1052.94 | 1047.33
2000 kPa | 1070.88 | 1064.73 | 1059.07 | 1053.31 | 1047.74
4000 kPa | 1071.63 | 1065.48 | 1059.88 | 1054.11 | 1048.56
6000 kPa | 1072.37 | 1066.26 | 1060.63 | 1054.91 | 1049.39
8000 kPa | 1073.11 | 1067.02 | 1061.43 | 1055.68 | 1050.19
10000 kPa | 1073.83 | 1067.77 | 1062.18 | 1056.48 | 1050.99

CCCC[n+]1ccc(C)cc1.N#C[S-] [1-butyl-4-methylpyridinium thiocyanate]
mass density [kg/m3]
Conditions | 298.15 K | 308.15 K | 318.15 K | 328.15 K | 338.15 K
100 kPa | 1061.57 | 1055.36 | 1049.83 | 1044.2 | 1037.12
200 kPa | 1061.61 | 1055.39 | 1049.88 | 1044.23 | 1037.15
300 kPa | 1061.64 | 1055.43 | 1049.93 | 1044.29 | 1037.18
400 kPa | 1061.66 | 1055.48 | 1049.96 | 1044.33 | 1037.18
500 kPa | 1061.7 | 1055.53 | 1050.03 | 1044.34 | 1037.24
600 kPa | 1061.74 | 1055.59 | 1050.06 | 1044.41 | 1037.29
800 kPa | 1061.81 | 1055.69 | 1050.13 | 1044.45 | 1037.35
1000 kPa | 1061.88 | 1055.77 | 1050.2 | 1044.55 | 1037.43
2000 kPa | 1062.24 | 1056.11 | 1050.6 | 1044.93 | 1037.83
4000 kPa | 1062.95 | 1056.86 | 1051.37 | 1045.71 | 1038.61
6000 kPa | 1063.68 | 1057.62 | 1052.12 | 1046.49 | 1039.4
8000 kPa | 1064.4 | 1058.35 | 1052.88 | 1047.26 | 1040.18
10000 kPa | 1065.1 | 1059.08 | 1053.61 | 1048.01 | 1040.98

CCn1cc[n+](C)c1.N#C[S-] [1-ethyl-3-methylimidazolium thiocyanate]
mass density [kg/m3]
Conditions | 298.15 K | 308.15 K | 318.15 K | 328.15 K | 338.15 K
100 kPa | 1116.69 | 1110.39 | 1104.8 | 1098.18 | 1092.87
200 kPa | 1116.71 | 1110.42 | 1104.83 | 1098.22 | 1092.93
300 kPa | 1116.72 | 1110.47 | 1104.87 | 1098.27 | 1092.97
400 kPa | 1116.77 | 1110.5 | 1104.91 | 1098.31 | 1093
500 kPa | 1116.82 | 1110.54 | 1104.97 | 1098.32 | 1093.05
600 kPa | 1116.86 | 1110.59 | 1105 | 1098.38 | 1093.11
800 kPa | 1116.92 | 1110.68 | 1105.04 | 1098.43 | 1093.18
1000 kPa | 1117 | 1110.74 | 1105.13 | 1098.54 | 1093.24
2000 kPa | 1117.35 | 1111.1 | 1105.5 | 1098.87 | 1093.64
4000 kPa | 1118.04 | 1111.81 | 1106.24 | 1099.64 | 1094.38
6000 kPa | 1118.74 | 1112.53 | 1106.96 | 1100.38 | 1095.15
8000 kPa | 1119.43 | 1113.24 | 1107.68 | 1101.1 | 1095.91
10000 kPa | 1120.11 | 1113.94 | 1108.39 | 1101.83 | 1096.65

From the NIST ThermoML archive (doi:10.1016/j.tca.2011.11.009)
